Legend:
[1] = Thioester hydrolysis in assay buffer, thiol detection with fluorescent coumarin probe 10; format: physicochemical; details: incubation with probe 10 in buffer FB-188, up to 100 minutes
Text: We therefore undertook preliminary studies to attempt to shed light on the reasons for the high potency of our thioesters in the enzymatic assays. We first envisaged that our assay buffer could potentially be responsible for thioester hydrolysis. We prepared and used synthetic probe 10 [30] (Scheme 3) in order to test this hypothesis. Coumarin-based probe 10 is known to react extremely fast with thiols through a Michael addition reaction. While the fluorescence of 10 is efficiently quenched by the intramolecular double bond, upon reaction with thiols, a highly fluorescent conjugate 11 is produced.
[formula] […] Bottom left: Fluorescence intensity at 465 nm (Y-axis, A.U.) as a function of the number of equivalents of 2-mercaptoethanol added (X-axis). Bottom right: Fluorescence intensity at 465 nm (Y-axis, A.U.) as a function of the incubation time (X-axis, minutes) of probe 10 with thioester 8.
Control experiments were performed using 2-mercaptoethanol as the thiol source. Fluorescence spectra of 10 (10^−6 M 10 in buffer FB-188 [31]) were recorded after incubation with 0, 0.2, 0.4, 0.6, 0.8, 1.0 and 1.5 equiv 2-mercaptoethanol (Scheme 3, bottom left). As expected, a linear relationship between fluorescence intensity and the concentration of thiol could be observed between 0 and 1.0 equiv, confirming the sensitivity and reliability of this system at low concentration. […]

[2] = test system: A549 (human lung carcinoma); experiment: Cytotoxicity against A549 cell line; format: cell-based; details: Homo sapiens; A549 cells
Protocol: (§1) Thioesters 7–9 were assayed against A549, MCF7 and WI38 cell lines, in addition to recombinant human rHDAC1 (class I) and recombinant human HDAC6 (rHDAC6, class II) as previously reported. Psammaplin A (3), prereduced psammaplin A thiol (4), and SAHA (1) were included as control compounds. IC50^6/1 is defined by the ratio IC50^HDAC6/IC50^HDAC1 and was used as an indicator of isoform selectivity in vitro.

[3] = biological target: T1, recombinant human HDAC6 (rHDAC6) (Homo sapiens, UniProt Q9UBN7); experiment: rHDAC6 inhibition, coupled Boc-Lys(Ac)-AMC/trypsin fluorescence assay; format: biochemical; details: purified recombinant human HDAC6
T1 construct: purchased BPS Bioscience (US)
T1 sequence (Q9UBN7 1-1215): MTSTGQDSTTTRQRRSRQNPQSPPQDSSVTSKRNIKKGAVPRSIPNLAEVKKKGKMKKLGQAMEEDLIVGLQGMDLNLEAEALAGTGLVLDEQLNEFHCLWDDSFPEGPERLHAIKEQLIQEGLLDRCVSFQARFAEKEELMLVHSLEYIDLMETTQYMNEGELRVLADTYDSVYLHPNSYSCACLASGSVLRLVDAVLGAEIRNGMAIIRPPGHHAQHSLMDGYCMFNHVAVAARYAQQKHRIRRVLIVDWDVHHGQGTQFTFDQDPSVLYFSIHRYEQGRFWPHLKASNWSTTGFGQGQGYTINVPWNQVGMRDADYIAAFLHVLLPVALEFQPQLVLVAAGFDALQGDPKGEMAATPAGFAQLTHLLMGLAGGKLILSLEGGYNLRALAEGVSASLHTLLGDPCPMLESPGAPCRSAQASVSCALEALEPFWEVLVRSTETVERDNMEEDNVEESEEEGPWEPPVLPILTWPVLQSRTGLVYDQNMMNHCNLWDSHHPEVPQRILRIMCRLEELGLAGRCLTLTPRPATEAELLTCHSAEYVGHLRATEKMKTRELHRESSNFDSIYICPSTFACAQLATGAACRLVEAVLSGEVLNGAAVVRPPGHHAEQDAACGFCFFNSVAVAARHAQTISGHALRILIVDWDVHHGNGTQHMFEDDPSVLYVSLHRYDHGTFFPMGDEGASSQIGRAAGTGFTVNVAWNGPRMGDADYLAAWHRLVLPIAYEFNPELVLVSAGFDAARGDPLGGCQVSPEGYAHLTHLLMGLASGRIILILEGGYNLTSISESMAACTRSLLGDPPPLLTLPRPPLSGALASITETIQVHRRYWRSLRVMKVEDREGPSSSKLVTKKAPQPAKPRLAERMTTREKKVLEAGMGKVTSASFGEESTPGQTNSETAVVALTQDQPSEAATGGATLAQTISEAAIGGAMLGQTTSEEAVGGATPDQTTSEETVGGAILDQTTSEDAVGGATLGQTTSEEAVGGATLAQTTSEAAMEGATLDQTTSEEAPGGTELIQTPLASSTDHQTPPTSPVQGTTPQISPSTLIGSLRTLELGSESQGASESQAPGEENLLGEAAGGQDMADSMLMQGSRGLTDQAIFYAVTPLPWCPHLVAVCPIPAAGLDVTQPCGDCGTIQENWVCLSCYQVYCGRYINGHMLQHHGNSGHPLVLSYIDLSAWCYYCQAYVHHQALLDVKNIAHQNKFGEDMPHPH
Protocol: (§2) HDAC assays were performed as previously reported. The recombinant human histone deacetylases rHDAC1 and rHDAC6 were obtained from BPS Bioscience (US).
(§3) All reactions were performed in black half area 96-well microplates (Greiner bio-one, Germany) according to the general procedure described by Wegener et al. with some minor modifications. […] The buffer components were purchased from Merck (Germany), Roth (Germany) and Sigma-Aldrich.
(§4) The enzyme reaction was initiated by the addition of Boc-Lys(Ac)-AMC substrate. The reaction mixture was incubated at 30 °C in the dark and stopped after 60 min by the addition of a mixture of 70 µM trypsin and 200 nM SAHA. The fluorescence of AMC served as an indirect measure of HDAC enzyme activity. The kinetics of AMC release was measured on a PolarStar fluorescence plate reader (BMG) with an excitation wavelength of 340 nm and an emission wavelength of 460 nm. Complete cleavage of deacetylated Boc-Lys-AMC by trypsin was achieved after about 10–15 min. The fluorescence intensity of the plateau was averaged over at least 5 min and normalized with respect to the percentage of enzyme activity. Finally, the normalized fluorescence intensities were plotted versus the concentration of test compounds and fitted to a four-parameter logistic model to calculate the IC50 values.

[4] = test system: WI38 (normal human lung fibroblast); experiment: Cytotoxicity against WI38 cell line; format: cell-based; details: Homo sapiens, WI-38; WI38 cells
Protocol: as §1

[5] = test system: MCF7 (human breast carcinoma); experiment: Cytotoxicity against MCF7 cell line; format: cell-based; details: MCF7 cells
Protocol: as §1

[6] = biological target: T2, rHDAC1 (Homo sapiens, UniProt Q13547); experiment: rHDAC1 inhibition, coupled Boc-Lys(Ac)-AMC/trypsin fluorescence assay; format: biochemical
T2 construct: purchased BPS Bioscience (US)
Protocol: as §2, §3, §4

T2 sequence (Q13547 whole entry): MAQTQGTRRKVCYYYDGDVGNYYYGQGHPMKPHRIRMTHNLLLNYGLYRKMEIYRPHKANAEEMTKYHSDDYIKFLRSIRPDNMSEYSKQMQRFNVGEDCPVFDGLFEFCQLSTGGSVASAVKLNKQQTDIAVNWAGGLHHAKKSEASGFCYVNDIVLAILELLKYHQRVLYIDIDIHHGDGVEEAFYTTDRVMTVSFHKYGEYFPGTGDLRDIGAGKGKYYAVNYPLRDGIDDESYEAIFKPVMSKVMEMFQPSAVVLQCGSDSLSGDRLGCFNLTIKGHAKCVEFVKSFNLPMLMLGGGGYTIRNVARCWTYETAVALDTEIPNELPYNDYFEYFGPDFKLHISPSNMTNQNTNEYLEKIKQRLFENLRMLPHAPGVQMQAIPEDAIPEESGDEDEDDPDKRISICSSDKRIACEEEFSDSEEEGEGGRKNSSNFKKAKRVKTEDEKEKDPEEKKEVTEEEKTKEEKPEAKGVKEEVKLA

In the case of `COc1ccc(C/C(=N\O)C(=O)NCCSC(C)=O)cc1Br` [Compound 8, (E)-(S)-2-(3-(3-Bromo-4-methoxyphenyl)-2-(hydroxyimino)propanamido)ethyl ethanethioate], the “thiol formation (thioester hydrolysis) in assay buffer” value [1] is reported as “no evidence of thiol formation”, the IC50 [2] is reported as 8.3 µM and the IC50 [3] is reported as 23 µM. The IC50 [4] was 5.2 µM, the IC50 [5] was 3.2 µM and the “IC50^6/1 (ratio IC50 HDAC6/IC50 HDAC1)” value ([6]; isoform selectivity in vitro) was 4560. The IC50 ([6]; purified recombinant human HDAC1) was 5 nM and the “times less potent than the corresponding free thiol analogue against rHDAC1” value ([6]; thioester vs free thiol) was 2.5 times.

Source: PMC3566764, “Thioester derivatives of the natural product psammaplin A as potent histone deacetylase inhibitors” (Beilstein Journal of Organic Chemistry, 2013)
